The experiment has as its target T1, full-length ATR (Homo sapiens, UniProt Q13535).
T1 construct: Assays were carried out at 25° C. in the presence of 5 nM full-length ATR
Nature of the experiment: ATR Inhibition Assay (radioactive-phosphate incorporation). The class given is biochemical. The conditions noted are these: for ATR Ki: Ki(app), 5 nM full-length ATR, 10 μM [γ-33P]ATP, 800 μM target peptide, 25° C. How it is done:
Compounds were screened for their ability to inhibit ATR kinase using a radioactive-phosphate incorporation assay. Assays were carried out in a mixture of 50 mM Tris/HCl (pH 7.5), 10 mM MgCl2 and 1 mM DTT.
Assays were carried out at 25° C. in the presence of 5 nM full-length ATR. An assay stock buffer solution was prepared containing all of the reagents listed above, with the exception of ATP and the test compound of interest. […] The plate was pre-incubated for 10 minutes at 25° C. and the reaction initiated by addition of 15 μL [γ-33P]ATP (final concentration 10 μM).
The reaction was stopped after […] by the addition of 30 μL 0.1M phosphoric acid containing 2 mM ATP. A multiscreen phosphocellulose filter 96-well plate (Millipore, Cat no. MAPHN0B50) was pretreated with 100 μL 0.2M phosphoric acid prior to the addition of 45 μL of the stopped assay mixture. The plate was washed with 5×200 μL 0.2M phosphoric acid.
After removing mean background values for all of the data points, Ki(app) data were calculated from non-linear regression analysis of the initial rate data using the Prism software package (GraphPad Prism version 3.0cx for Macintosh, GraphPad Software, San Diego Calif., USA).

T1 sequence (Q13535 whole entry): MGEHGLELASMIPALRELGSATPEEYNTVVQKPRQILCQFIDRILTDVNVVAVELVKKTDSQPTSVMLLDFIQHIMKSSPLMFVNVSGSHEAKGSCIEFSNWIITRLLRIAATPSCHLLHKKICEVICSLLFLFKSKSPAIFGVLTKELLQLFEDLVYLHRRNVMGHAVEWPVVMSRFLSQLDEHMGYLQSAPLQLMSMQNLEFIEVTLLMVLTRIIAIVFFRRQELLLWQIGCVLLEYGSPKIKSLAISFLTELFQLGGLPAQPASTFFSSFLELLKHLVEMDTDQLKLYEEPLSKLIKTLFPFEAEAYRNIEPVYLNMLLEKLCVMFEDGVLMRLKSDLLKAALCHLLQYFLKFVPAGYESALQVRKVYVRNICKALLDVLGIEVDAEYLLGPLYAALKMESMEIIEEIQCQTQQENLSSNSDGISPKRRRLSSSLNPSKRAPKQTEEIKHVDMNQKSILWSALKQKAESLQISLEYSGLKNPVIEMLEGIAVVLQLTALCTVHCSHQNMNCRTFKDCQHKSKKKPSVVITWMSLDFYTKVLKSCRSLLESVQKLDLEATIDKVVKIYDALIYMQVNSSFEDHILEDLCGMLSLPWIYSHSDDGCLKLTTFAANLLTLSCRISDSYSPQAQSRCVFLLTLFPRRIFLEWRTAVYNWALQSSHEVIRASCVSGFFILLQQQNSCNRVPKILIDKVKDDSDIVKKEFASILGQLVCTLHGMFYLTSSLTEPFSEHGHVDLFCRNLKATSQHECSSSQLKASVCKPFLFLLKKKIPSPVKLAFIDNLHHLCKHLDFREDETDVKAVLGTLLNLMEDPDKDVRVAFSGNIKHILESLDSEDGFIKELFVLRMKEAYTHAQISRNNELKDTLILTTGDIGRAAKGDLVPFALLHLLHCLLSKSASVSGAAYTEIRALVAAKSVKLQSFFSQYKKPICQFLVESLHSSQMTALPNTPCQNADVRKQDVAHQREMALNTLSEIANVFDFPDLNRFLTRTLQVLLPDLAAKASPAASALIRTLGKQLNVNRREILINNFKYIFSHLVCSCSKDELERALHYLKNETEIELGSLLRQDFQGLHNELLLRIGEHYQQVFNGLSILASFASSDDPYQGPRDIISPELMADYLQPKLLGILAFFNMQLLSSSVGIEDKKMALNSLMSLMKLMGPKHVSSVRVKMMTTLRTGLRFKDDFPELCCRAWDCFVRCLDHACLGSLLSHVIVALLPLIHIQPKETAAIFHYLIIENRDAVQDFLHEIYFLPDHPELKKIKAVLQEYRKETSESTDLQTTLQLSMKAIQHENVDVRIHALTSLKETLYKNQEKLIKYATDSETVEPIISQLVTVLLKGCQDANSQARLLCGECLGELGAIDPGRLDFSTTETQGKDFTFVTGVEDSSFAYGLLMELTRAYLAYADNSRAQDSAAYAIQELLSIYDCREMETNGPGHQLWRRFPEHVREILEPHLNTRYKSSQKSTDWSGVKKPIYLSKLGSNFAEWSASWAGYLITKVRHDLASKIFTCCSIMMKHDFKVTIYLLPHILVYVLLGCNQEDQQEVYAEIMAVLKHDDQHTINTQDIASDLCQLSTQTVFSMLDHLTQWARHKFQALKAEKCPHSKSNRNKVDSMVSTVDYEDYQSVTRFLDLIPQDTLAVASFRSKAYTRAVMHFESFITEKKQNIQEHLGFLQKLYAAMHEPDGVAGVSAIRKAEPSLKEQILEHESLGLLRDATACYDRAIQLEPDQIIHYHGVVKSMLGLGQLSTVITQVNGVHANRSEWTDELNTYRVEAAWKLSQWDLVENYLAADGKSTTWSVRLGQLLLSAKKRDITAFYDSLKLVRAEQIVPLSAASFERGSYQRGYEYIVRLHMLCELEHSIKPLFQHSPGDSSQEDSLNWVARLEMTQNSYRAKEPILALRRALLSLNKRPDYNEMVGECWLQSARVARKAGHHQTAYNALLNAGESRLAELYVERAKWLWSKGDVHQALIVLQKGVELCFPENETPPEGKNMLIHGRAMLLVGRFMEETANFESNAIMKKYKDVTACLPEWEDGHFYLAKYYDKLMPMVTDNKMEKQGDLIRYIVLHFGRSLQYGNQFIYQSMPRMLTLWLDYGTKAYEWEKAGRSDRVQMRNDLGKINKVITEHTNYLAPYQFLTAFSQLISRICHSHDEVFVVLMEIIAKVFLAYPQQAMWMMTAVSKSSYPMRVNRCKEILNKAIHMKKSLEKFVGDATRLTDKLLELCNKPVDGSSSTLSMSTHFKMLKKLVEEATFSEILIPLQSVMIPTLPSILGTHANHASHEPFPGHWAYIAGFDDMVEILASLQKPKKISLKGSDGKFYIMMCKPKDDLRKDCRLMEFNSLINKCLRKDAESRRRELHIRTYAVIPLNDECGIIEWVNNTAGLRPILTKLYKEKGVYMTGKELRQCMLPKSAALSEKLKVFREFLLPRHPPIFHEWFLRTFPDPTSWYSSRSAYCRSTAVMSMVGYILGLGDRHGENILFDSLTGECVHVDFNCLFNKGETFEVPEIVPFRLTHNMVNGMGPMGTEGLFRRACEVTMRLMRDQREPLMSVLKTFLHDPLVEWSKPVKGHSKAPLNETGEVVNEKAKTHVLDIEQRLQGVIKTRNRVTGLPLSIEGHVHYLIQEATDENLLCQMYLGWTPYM

Turning to `CN1CCN(c2ccc(-c3nnc(-c4nc(-c5ccnc(C(C)(C)C#N)c5)cnc4N)o3)cc2)CC1` [Compound I-86], the “ATR Ki” value was “+++ (Compounds with a Ki value >5 nM but ≦1 nM are marked with “+++.”)”.
With `CC(C)(C#N)c1cc(-c2cnc(N)c(-c3nnc(-c4cccc(N5CC[C@@H](N)C5)c4)o3)n2)ccn1` [Compound I-77], the Ki was below 1 nM.
Same read-out and setting: with `COc1cccc(C)c1-c1cc(-c2nc(-c3ccnc(C4(C#N)CCNCC4)c3)cnc2N)on1` [Compound I-29, 4-[4-[5-amino-6-[3-(2-methoxy-6-methyl-phenyl)isoxazol-5-yl]pyrazin-2-yl]-2-pyridyl]piperidine-4-carbonitrile] the figure was 20 to 100 nM.
On the same count and under the same terms, with `CC(C)(C#N)c1cc(-c2cnc(N)c(-c3nnc(-c4cc5c(s4)CNCC5)o3)n2)ccn1` [Compound I-111] the figure was below 1 nM; with `N#CC1(c2cc(-c3cnc(N)c(-c4nnc(-c5ccccc5)o4)n3)ccn2)CCNCC1` [Compound I-94], 5 to 20 nM.
Same read-out and setting: with `CCC(C#N)c1cc(-c2cnc(N)c(-c3cc(-c4ccc(CNC)cc4)no3)n2)ccn1` (stereo not drawn) [Compound I-3, 2-[4-[5-amino-6-[3-[4-(methylaminomethyl)phenyl]isoxazol-5-yl]pyrazin-2-yl]-2-pyridyl]butanenitrile] the figure was below 1 nM; with `CC(C)(C#N)c1cc(-c2cnc(N)c(-c3cc(-c4ccc(CNC5CCOCC5)cc4)no3)n2)ccn1` [Compound I-53, 2-(4-(5-amino-6-(3-(4-(((tetrahydro-2H-pyran-4-yl)amino)methyl)phenyl)isoxazol-5-yl)pyrazin-2-yl)pyridin-2-yl)-2-methylpropanenitrile], below 1 nM.
On to `CC(C)(C#N)c1cc(-c2cnc(N)c(-c3nnc(-c4ccc(NCCN5CCOCC5)cc4)o3)n2)ccn1` [Compound I-116], for which the inhibition constant (Ki) is below 1 nM.
On the same count and under the same terms, with `CNCc1ccc(-c2cc(-c3nc(-c4ccnc(C5(C(N)=O)CCOCC5)c4)cnc3N)on2)cc1` [Compound I-13, 4-[4-[5-amino-6-[3-[4-(methylaminomethyl)phenyl]isoxazol-5-yl]pyrazin-2-yl]-2-pyridyl]tetrahydropyran-4-carboxamide] the figure was below 1 nM; with `N#CC1(c2cc(-c3cnc(N)c(-c4cc(-c5ccccc5)no4)n3)ccn2)CN2CCC1CC2` (stereo not drawn) [Compound I-74], below 1 nM.
On the same count and under the same terms, with `CC(C)(C#N)c1cc(-c2cnc(N)c(-c3nnc(-c4cc5c(s4)CCNC5)o3)n2)ccn1` [Compound I-96] the figure was below 1 nM.
On to `N#CC1(c2cc(-c3cnc(N)c(-c4cc(-c5ccccc5F)no4)n3)ccn2)CCNCC1` [Compound I-28, 4-(4-(5-amino-6-(3-(2-fluorophenyl)isoxazol-5-yl)pyrazin-2-yl)pyridin-2-yl)piperidine-4-carbonitrile], for which the “ATR Ki” value is “+++ (Compounds with a Ki value >5 nM but ≦1 nM are marked with “+++.”)”.
On the same count and under the same terms, with `N#CC1(c2cc(-c3cnc(N)c(-c4cc(-c5ccc6[nH]ccc6c5)no4)n3)ccn2)CCNCC1` [Compound I-33, 4-[4-[5-amino-6-[3-(1H-indol-5-yl)isoxazol-5-yl]pyrazin-2-yl]-2-pyridyl]piperidine-4-carbonitrile] the entry was “+++ (Compounds with a Ki value >5 nM but ≦1 nM are marked with “+++.”)”.
For the compound `CC(C)(C#N)c1cc(-c2cnc(N)c(-c3nnc(-c4ccc(OC5CNC5)cc4)o3)n2)ccn1` [Compound I-113], the Ki was below 1 nM.
For `CC(C)(C#N)c1cc(-c2cnc(N)c(-c3nnc(-c4ccc(F)cc4F)o3)n2)ccn1` [Compound I-134], the “ATR Ki” value is on record as “+++ (Compounds with a Ki value >5 nM but ≦1 nM are marked with “+++.”)”.
As for `CC(C)(C#N)c1cc(-c2cnc(N)c(-c3cc(-c4ccc(C(N)CF)cc4)no3)n2)ccn1` (stereo not drawn) [Compound I-16, 2-[4-[5-amino-6-[3-[4-(1-amino-2-fluoro-ethyl)phenyl]isoxazol-5-yl]pyrazin-2-yl]-2-pyridyl]-2-methyl-propanenitrile], the inhibition constant Ki is below 1 nM.
As for `N#CC1(c2cc(-c3cnc(N)c(-c4cc(-c5cccs5)no4)n3)ccn2)CCNCC1` [Compound I-30, 4-[4-[5-amino-6-[3-(2-thienyl)isoxazol-5-yl]pyrazin-2-yl]-2-pyridyl]piperidine-4-carbonitrile], the Ki was below 1 nM.
With `CC(C)(C(N)=O)c1cc(-c2cnc(N)c(-c3cc(-c4ccccc4)no3)n2)ccn1` [Compound I-45, 2-[4-[5-amino-6-(3-phenylisoxazol-5-yl)pyrazin-2-yl]-2-pyridyl]-2-methyl-propanamide], the “ATR Ki” value was “+++ (Compounds with a Ki value >5 nM but ≦1 nM are marked with “+++.”)”.
Take `CC(C)(C#N)c1cc(-c2cnc(N)c(-c3nnc(-c4ccc(NCC5CNC5)cc4)o3)n2)ccn1` [Compound I-104]: the inhibition constant (Ki) is below 1 nM.
Same read-out and setting: with `CC(C)(C#N)c1cc(-c2cnc(N)c(-c3cc(-c4ccccc4)no3)n2)ccn1` [Compound I-5, 2-[4-[5-amino-6-(3-phenylisoxazol-5-yl)pyrazin-2-yl]-2-pyridyl]-2-methyl-propanenitrile] the figure was below 1 nM; with `CN1CCN(Cc2ccc(-c3nnc(-c4nc(-c5ccnc(C(C)(C)C#N)c5)cnc4N)o3)cc2)CC1` [Compound I-100], 5 to 20 nM; with `CC(C)(c1cc(-c2cnc(N)c(-c3cc(-c4ccccc4)no3)n2)ccn1)S(C)(=O)=O` [Compound I-22, 5-[2-(1-methyl-1-methylsulfonyl-ethyl)-4-pyridyl]-3-(3-phenylisoxazol-5-yl)pyrazin-2-amine], below 1 nM.
The same measure, in the same setting: with `N#CCc1cc(-c2cnc(N)c(-c3nnc(-c4ccc(CNC5CCOCC5)cc4)o3)n2)ccn1` [Compound I-137] the figure was below 1 nM.
As to `CC(C)(C#N)c1cc(-c2cnc(N)c(-c3cc(-c4ccc([C@H]5COCCN5)cc4)no3)n2)ccn1` [Compound I-71], the “ATR Ki” value is recorded as “+++ (Compounds with a Ki value >5 nM but ≦1 nM are marked with “+++.”)”.
On to `N#CC1(c2cc(-c3cnc(N)c(-c4cc(-c5ccc(CN[C@H]6CCOC6)cc5)no4)n3)ccn2)CCOCC1` [Compound I-42, 4-[4-[5-amino-6-[3-[4-[[[(3S)-tetrahydrofuran-3-yl]amino]methyl]phenyl]isoxazol-5-yl]pyrazin-2-yl]-2-pyridyl]tetrahydropyran-4-carbonitrile], for which the Ki is below 1 nM.
With `CC(C)(C#N)c1cc(-c2cnc(N)c(-c3nnc(-c4ccc(F)cc4NCCN)o3)n2)ccn1` [Compound I-70], the inhibition constant (Ki) is below 1 nM.
As to `CC(C)(C#N)c1cc(-c2cnc(N)c(-c3nnc(-c4ccc(C5=NCCN5)cc4)o3)n2)ccn1` [Compound I-129], the “ATR Ki” value is “+++ (Compounds with a Ki value >5 nM but ≦1 nM are marked with “+++.”)”.
The same measure, in the same setting: with `N#CC1(c2cc(-c3cnc(N)c(-c4nnc(-c5cccs5)o4)n3)ccn2)CCNCC1` [Compound I-101] the entry was “+++ (Compounds with a Ki value >5 nM but ≦1 nM are marked with “+++.”)”; with `CC(C)(C#N)c1cc(-c2cnc(N)c(-c3nnc(-c4ccc(N5CCC(N)CC5)cc4)o3)n2)ccn1` [Compound I-76], “+++ (Compounds with a Ki value >5 nM but ≦1 nM are marked with “+++.”)”.
With `N#CC1(c2cc(-c3cnc(N)c(-c4cc(-c5ccccc5)no4)n3)ccn2)CCCNC1` (stereo not drawn) [Compound I-12, 3-[4-[5-amino-6-(3-phenylisoxazol-5-yl)pyrazin-2-yl]-2-pyridyl]piperidine-3-carbonitrile], the “ATR Ki” value is “+++ (Compounds with a Ki value >5 nM but ≦1 nM are marked with “+++.”)”.
Turning to `CN(C)CCNC(=O)C(C)(C)c1cc(-c2cnc(N)c(-c3cc(-c4ccccc4)no3)n2)ccn1` [Compound I-85], the inhibition constant (Ki) lay in the range of 5 to 20 nM.
Take `CNCCNc1ccc(-c2nnc(-c3nc(-c4ccnc(C(C)(C)C#N)c4)cnc3N)o2)cc1` [Compound I-117]: the Ki was below 1 nM.
On the same count and under the same terms, with `CC(C)(C#N)c1cc(-c2cnc(N)c(-c3cc(-c4ccc(C5COCCN5)cc4)no3)n2)ccn1` (stereo not drawn) [Compound I-60] the figure was below 1 nM; with `CC(C)(C#N)c1cc(-c2cnc(N)c(-c3cc(-c4ccc(CNC5CC5)cc4)no3)n2)ccn1` [Compound I-48, 2-[4-[5-amino-6-[3-[4-[(cyclopropylamino)methyl]phenyl]isoxazol-5-yl]pyrazin-2-yl]-2-pyridyl]-2-methyl-propanenitrile], below 1 nM; with `CC(C)(C(=O)NCCN1CCOCC1)c1cc(-c2cnc(N)c(-c3cc(-c4ccccc4)no3)n2)ccn1` [Compound I-21, 2-[4-[5-amino-6-(3-phenylisoxazol-5-yl)pyrazin-2-yl]-2-pyridyl]-2-methyl-N-(2-morpholinoethyl)propanamide], 5 to 20 nM.
The same measure, in the same setting: with `CC(C)(C#N)c1cc(-c2cnc(N)c(-c3nnc(-c4ccc(N5CC[C@H](N)C5)cc4)o3)n2)ccn1` [Compound I-88] the figure was below 1 nM; with `COCCNC(=O)C(C)(C)c1cc(-c2cnc(N)c(-c3cc(-c4ccccc4)no3)n2)ccn1` [Compound I-38, 2-[4-[5-amino-6-(3-phenylisoxazol-5-yl)pyrazin-2-yl]-2-pyridyl]-N-(2-methoxyethyl)-2-methyl-propanamide], 5 to 20 nM.
Same read-out and setting: with `Cc1ccsc1-c1cc(-c2nc(-c3ccnc(C(C)(C)C#N)c3)cnc2N)on1` [Compound I-8, 2-[4-[5-amino-6-[3-(3-methyl-2-thienyl)isoxazol-5-yl]pyrazin-2-yl]-2-pyridyl]-2-methyl-propanenitrile] the figure was below 1 nM.
For `CC(C)(C#N)c1cc(-c2cnc(N)c(-c3nnc(-c4ccc(NC5CNC5)cc4)o3)n2)ccn1` [Compound I-107], the inhibition constant Ki was below 1 nM.

As a reminder, the Ki is a dissociation constant, usually derived from enzyme kinetics or from competition with a known ligand.

For the origin of these results see patent US8877759B2, “Aminopyrazines as ATR kinase inhibitors” (Vertex Pharnaceuticals Incorporated, priority 2011, dated 2014).
